Experimental findings from ChEMBL document CHEMBL2021855, “Hepatitis C RNA-dependent RNA polymerase inhibitors: a review of structure-activity and resistance relationships; different scaffolds and mutations” (Bioorg Med Chem, 2012) are described below.

Some results are limits rather than exact numbers.

Data set [1] can be described thus: Competitive inhibition of Hepatitis C virus NS5B RNA-dependent RNA polymerase. Also noted: species or system Hepacivirus hominis.
The test system of data set [2] is Hepatitis C virus. Nature of the data set: Antiviral activity against Hepatitis C virus assessed as inhibition of viral replication by replicon assay. It counts as functional, organism-based, Hepacivirus hominis. In general terms: In antiviral work, replicon cells carry a viral genome segment that copies itself.
A short description of data set [3]: Inhibition of Hepatitis C virus NS5B RNA-dependent RNA polymerase. Also noted: species or system Hepacivirus hominis.
Data set [4] deals with Hepatitis C virus. Kind of data set: Inhibition of Hepatitis C virus genotype 1b NS5B RNA-dependent RNA polymerase M423 mutant. On the set-up: species or system Hepatitis C virus subtype 1b.
Data set [5] deals with Hepatitis C virus. Kind of data set: Inhibition of Hepatitis C virus genotype 1b NS5B RNA-dependent RNA polymerase. Also noted: species or system Hepatitis C virus subtype 1b.
The test system of data set [6] is Hepatitis C virus. Kind of data set: Inhibition of Hepatitis C virus con1 NS5B RNA-dependent RNA polymerase C316Y mutant. On the set-up: species or system Hepacivirus hominis.
In data set [7] the test system is Hepatitis C virus. Nature of the data set: Antiviral activity against Hepatitis C virus genotype 1a assessed as inhibition of viral replication by replicon assay. Format: functional, organism-based, Hepacivirus hominis. The note with it: subtype 1a.
Data set [8] has as its system Hepatitis C virus. Nature of the data set: Inhibition of Hepatitis C virus con1 NS5B RNA-dependent RNA polymerase. Also noted: species or system Hepacivirus hominis.
The nature of data set [9]: Inhibition of Hepatitis C virus genotype 1 NS5B RNA-dependent RNA polymerase.
The subject of data set [10] is Hepatitis C virus. Kind of data set: Antiviral activity against Hepatitis C virus genotype 1b assessed as inhibition of viral replication by replicon assay. Format: functional, organism-based, Hepacivirus hominis.
Data set [11] deals with Hepatitis C virus. Kind of data set: Antiviral activity against Hepatitis C virus genotype 1a infected in human HuH7 cells assessed as inhibition of viral replication by replicon assay. It counts as functional, organism-based, Hepacivirus hominis. The note with it: subtype 1a, Huh-7.
Data set [12] can be described thus: Half life in monkey liver microsomes. The note with it: rhesus monkey. For orientation: Microsomes from liver hold many membrane-bound enzymes, among them those of drug oxidation.
Data set [13] concerns Hepatitis C virus. Kind of data set: Antiviral activity against Hepatitis C virus genotype 1b infected in human HuH7 cells assessed as inhibition of viral replication by replicon assay. It counts as functional, organism-based, Hepacivirus hominis. The conditions noted are these: Huh-7.
Data set [14] in a line: Half life in human liver microsomes.
A short description of data set [15]: Cytotoxicity against human HuH7 cells. It counts as cell-based, Huh-7.
The test system of data set [16] is Hepatitis C virus. Nature of the data set: Inhibition of Hepatitis C virus genotype 1b NS5B RNA-dependent RNA polymerase P495L mutant. Also noted: species or system Hepatitis C virus subtype 1b.

For orientation: Ki means the dissociation constant of the complex between target and ligand, obtained from inhibition or displacement. `[N-]=[N+]=N[C@]1(CO)O[C@@H](n2ccc(N)nc2=O)[C@H](O)[C@@H]1O` [4'-AZIDOCYTIDINE] registered a Ki in data set [1] of 40 nM. Usually EC50 stands for the midpoint of the concentration-response curve. For orientation: IC50 means the concentration needed to halve the response being measured. As for `O=C(O)/C=C/c1ccc(NC(=O)C2(NC(=O)c3ccc4c(c3)nc(-c3ccoc3)n4C3CCCCC3)CCCC2)cc1`, the EC50 with Hepatitis C virus [2] was 72 nM. Further, the 50% inhibitory concentration (IC50) in [3] was 95 nM. Take `C[C@H]1CC[C@H](C(=O)N(c2cc(-c3ccccc3)sc2C(=O)O)[C@H]2CC[C@H](O)CC2)CC1`: the IC50 with Hepatitis C virus [4] was found to be 450 nM; in the data set on Hepatitis C virus [5], 17 nM. For the compound `CO[C@@H]1[C@H](O)[C@@H](CO)O[C@H]1n1cnc2c(O)nc(N)nc21`, the IC50 in data set [3] turned out to be 3800 nM.

In the case of `CNC(=O)c1c(-c2ccc(F)cc2)oc2cc(N(CCO)S(C)(=O)=O)c(C3CC3)cc12` [NESBUVIR], the IC50 in the data set on Hepatitis C virus [6] came out at 2160 nM; in the data set with Hepatitis C virus [8] it was 0.8 nM; in data set [9], 10 nM. The 50% effective concentration (EC50) in the data set on Hepatitis C virus [7] was 5 nM; in the data set with Hepatitis C virus [10] it was 9 nM. The compound `Nc1ncnc2c1ccn2[C@@H]1O[C@H](CO)C[C@H]1O` displayed an IC50 in [3] of 80 nM.

As usually defined, the half-life is how long it takes for the measured level to halve. By CC50 is commonly meant the concentration that lowers cell viability or growth by half. For `CS(=O)(=O)Nc1ccc2c(c1)S(=O)(=O)N=C(C1=C(O)[C@@H]3[C@H]4CC[C@H](C4)[C@@H]3N(Cc3ccc(F)cc3)C1=O)N2` [SETROBUVIR], the EC50 with Hepatitis C virus [11] amounted to 52 nM; in the data set with Hepatitis C virus [13], 3 nM. The half-life in data set [12] and in [14] was more than 1 h each time. This compound displayed a CC50 in [15] of 100000 nM. In data set [3], `C[C@@]1(O)[C@H](O)[C@@H](CO)O[C@H]1n1cnc2c(=O)[nH]c(N)nc21` [2'-B-METHYL-GUANOSINE] gave a 50% effective concentration (EC50) of 3500 nM. In data set [3], `Nc1ccn([C@@H]2O[C@H](CO)C[C@H]2O)c(=O)n1` showed an IC50 of 80 nM. Regarding `COC[C@H]1C[C@@](Cn2cccn2)(C(=O)O)N(C(=O)c2ccc(C(C)(C)C)c(OC)c2)[C@H]1c1nccs1` [GSK-625433], the EC50 with Hepatitis C virus [7] turned out to be 290 nM; in the data set on Hepatitis C virus [10], 2 nM. In the case of `C[C@@]1(O)[C@H](O)[C@@H](CO)O[C@H]1n1cc(F)c2c(N)ncnc21`, the EC50 in the data set on Hepatitis C virus [2] is 70 nM. The compound `O=C(O)c1ccc2c(c1)nc(-c1ccc(OCc3cc(N4CCCC4=O)ccc3-c3ccc(Cl)cc3)cc1F)n2C1CCCCC1` had an IC50 with Hepatitis C virus [16] of 1500 nM.

On to `CO[C@@H]1[C@H](O)[C@@H](CO)O[C@H]1n1ccc(N)nc1=O`, for which, in data set [3], the IC50 was found to be 1200 nM. In the case of `Nc1nc2c(ncn2[C@@H]2O[C@H](CO)C[C@H]2O)c(=O)[nH]1`, the IC50 in [3] came to 80 nM. The same measure, in the same setting: the same measure for `Nc1nc(O)c2ccn([C@@H]3O[C@H](CO)C[C@H]3O)c2n1`: 80 nM. As for `CO[C@@H]1[C@H](O)[C@@H](CO)O[C@H]1n1ccc2c(O)nc(N)nc21`, in data set [3], inhibition was half-maximal at 350 nM (IC50). The same measure, in the same setting: the same measure for `O=C(O)/C=C/c1ccc(NC(=O)CNC(=O)c2ccc3c(c2)nc(-c2ccoc2)n3C2CCCCC2)cc1`: 280 nM.
